In patent publication US6586633B1, “Amine derivatives” (Pola Chemical Industries, Inc., priority 2001, dated 2003):
Read-outs that look alike come from different tables or passages of the source.

Assays:
Assay in all cases: Measurement of antifungal activity (minimum inhibitory concentration), agar dilution
Type in all cases: cell-based
[1] = test system: T. mentagrophytes IF07552; details: Sabouraud's agar, one week at 27° C.; for MIC: Trichophyton mentagrophytes, 168 h, read-out: MIC value (minimum compound concentration that definitely inhibited any visible growth)
Procedure: (§1) Measurement of Antifungal Activity (Measurement of Minimum Inhibitory Concentration)
(§2) Antifungal activity of representative compounds of the present invention against dermatophytes was investigated.
(§3) Briefly, strains of dermatophytes to be tested were grown on slant media prepared with Sabouraud's agar (product of Nissuiseiyaku; pepton 1.0%, glucose 4.0%, agar 1.5%, pH 5.9) at 27° C. for two weeks, so as to allow sufficient production of conidiospores. Subsequently, sterilized saline solution containing 0.05% (wt/vol) TWEEN 80 was added thereto, and while the surface of the each medium was scraped with a platinum loop, the conidiospores were deaggregated and suspended in the saline solution. The suspension was filtered through a double face sterilized gauze sheet so as to remove agar and hypha pellets. The filtrate was diluted with a saline solution so as to make the concentration of the conidiospores decrease to 10^6/ml by use of a cytometer, and the resultant dilute filtrate served as a test dermatophytes solution. Meanwhile, a stock solution was prepared by adding 1 ml of dimethylsulfoxide to 10 mg of a compound to be tested. An aliquot (500 μl) of the stock solution was combined with dimethylsulfoxide (500 μl), to thereby prepare a 2-fold dilute solution. Dilution was similarly repeated until 13 different dilute solutions ranging from 10 to 0.0025 mg/ml (concentrations of the ultimate test system: 100-0.025 μg/ml) were obtained. 100 μl each of the diluted solutions of the test compound was dispensed into the sterilized petri dish. A Sabouraud's agar (pepton 1.0%, glucose 4.0%, agar 1.5%, pH 5.9; 10 ml), which had been sterilized and dissolved, was added thereto, and the mixture was thoroughly mixed and solidified. Next, the above-prepared test dermatophytes solution was planted in amounts of 5 μl by use of a microplanter.

[2] = test system: T. mentagrophytes TIMM1189; details: Sabouraud's agar, one week at 27° C.; for MIC: Trichophyton mentagrophytes, 168 h, read-out: MIC value (minimum compound concentration that definitely inhibited any visible growth)
Procedure: as §1, §2, §3

[3] = test system: T. mentagrophytes TIMM1177; details: Sabouraud's agar, one week at 27° C.; for MIC: Trichophyton mentagrophytes, 168 h, read-out: MIC value (minimum compound concentration that definitely inhibited any visible growth)
Procedure: as §1, §2, §3

[4] = test system: T. violaceum TIMM1264; details: Sabouraud's agar, one week at 27° C.; for MIC: Trichophyton violaceum, 168 h, read-out: MIC value (minimum compound concentration that definitely inhibited any visible growth)
Procedure: as §1, §2, §3

[5] = test system: T. rubrum IF09185; details: Sabouraud's agar, one week at 27° C.; for MIC: Trichophyton rubrum, 168 h, read-out: MIC value (minimum compound concentration that definitely inhibited any visible growth)
Procedure: as §1, §2, §3

[6] = test system: M. gypseum IF08231; details: Sabouraud's agar, one week at 27° C.; for MIC: Nannizzia gypsea, 168 h, read-out: MIC value (minimum compound concentration that definitely inhibited any visible growth)
Procedure: as §1, §2, §3

[7] = test system: T. rubrum IF05808; details: Sabouraud's agar, one week at 27° C.; for MIC: Trichophyton rubrum, 168 h, read-out: MIC value (minimum compound concentration that definitely inhibited any visible growth)
Procedure: as §1, §2, §3

[8] = test system: T. mentagrophytes IF05811; details: Sabouraud's agar, one week at 27° C.; for MIC: Trichophyton mentagrophytes, 168 h, read-out: MIC value (minimum compound concentration that definitely inhibited any visible growth)
Procedure: as §1, §2, §3

[9] = test system: M. canis TIMM0760; details: Sabouraud's agar, one week at 27° C.; for MIC: Microsporum canis, 168 h, read-out: MIC value (minimum compound concentration that definitely inhibited any visible growth)
Procedure: as §1, §2, §3

Row | Structure (SMILES) | MIC [1] [µg/mL] | MIC [2] [µg/mL] | MIC [3] [µg/mL] | MIC [4] [µg/mL] | MIC [5] [µg/mL] | MIC ([6]; H. gypseum IF08231 (Table 1)) [µg/mL] | MIC [7] [µg/mL] | MIC [8] [µg/mL] | MIC [9] [µg/mL] | MIC ([6]; M. gypseum IF08231 (Table 2)) [µg/mL] | MIC value (minimum compound concentration that definitely inhibited any visible growth) ([6]; M. gypseum IF08231 (Table 2)) [µg/mL] | MIC value (minimum compound concentration that definitely inhibited any visible growth) [1] [µg/mL] | MIC value (minimum compound concentration that definitely inhibited any visible growth) [2] [µg/mL] | MIC value (minimum compound concentration that definitely inhibited any visible growth) [3] [µg/mL] | MIC value (minimum compound concentration that definitely inhibited any visible growth) [4] [µg/mL] | MIC value (minimum compound concentration that definitely inhibited any visible growth) [5] [µg/mL] | MIC value (minimum compound concentration that definitely inhibited any visible growth) ([6]; H. gypseum IF08231 (Table 1)) [µg/mL] | MIC value (minimum compound concentration that definitely inhibited any visible growth) [7] [µg/mL] | MIC value (minimum compound concentration that definitely inhibited any visible growth) [8] [µg/mL] | MIC value (minimum compound concentration that definitely inhibited any visible growth) [9] [µg/mL]
1 | C=Cc1cccc(CN(C)Cc2ccc(C(C)(C)C)cc2)c1.Cl [Compound 81, N-(4-tert-Butylbenzyl)-N-methyl-(3-vinylbenzyl)amine Hydrochloride] | 0.39 | 0.78 | 0.39 | 0.78 | 0.39 |  | 0.2 | 0.39 | 0.2 | 0.39 |  |  |  |  |  |  |  |  |  | 
2 | C/C=C(/C)c1cccc(CN(C)C/C=C/C#CC(C)(C)C)c1.Cl [Compound 27, trans-, cis-N-(6,6-Dimethyl-2-hepten-4-ynyl)-N-methyl-[3-(1-methyl-1-propenyl)benzyl]amine Hydrochloride] |  |  |  |  |  |  |  |  |  |  |  | 1.56 | 1.56 | 1.56 | 1.56 | 1.56 | 6.25 | 1.56 | 1.56 | 0.78
3 | C=C(C)c1cc(CN(C)Cc2ccc(C(C)(C)C)cc2)ccc1C.Cl [Compound 126, N-(4-tert-Butylbenzyl)-N-methyl-(3-isopropenyl-4-methylbenzyl)amine Hydrochloride] | 3.12 | 3.12 | 12.5 | 3.12 | 3.12 |  | 3.12 | 12.5 | 1.56 | 6.25 |  |  |  |  |  |  |  |  |  | 
4 | C=C(C)c1ccccc1CN(C)Cc1ccc(C(C)(C)C)cc1.Cl [Compound 108, N-(4-tert-Butylbenzyl)-N-methyl-(2-isopropenylbenzyl)amine Hydrochloride] | 1.56 | 1.56 | 3.12 | 3.12 | 0.78 |  | 0.78 | 1.56 | 1.56 | 1.56 |  |  |  |  |  |  |  |  |  | 
5 | C=C(C)c1cc(C)cc(CN(C)Cc2ccc(C(C)(C)C)cc2)c1.Cl [Compound 88, N-(4-tert-Butylbenzyl)-N-methyl-(3-isopropenyl-5-methylbenzyl)amine hydrochloride] | 0.05 | 0.05 | 0.1 | 0.1 | 0.05 |  | 0.05 | 0.1 | 0.05 | 0.1 |  |  |  |  |  |  |  |  |  | 
6 | C=C(C)c1cc(F)cc(CN(C)Cc2ccc(C(C)(C)C)cc2)c1.Cl [Compound 101, N-(4-tert-Butylbenzyl)-N-methyl-(3-fluoro-5-isopropenylbenzyl)amine Hydrochloride] | 0.1 | 0.1 | 0.2 | 0.1 | 0.1 |  | 0.05 | 0.1 | 0.1 | 0.2 |  |  |  |  |  |  |  |  |  | 

Further lines, with some results ahead:

Row | MIC [1] [µg/mL] | MIC [2] [µg/mL] | MIC [3] [µg/mL] | MIC [4] [µg/mL] | MIC [5] [µg/mL] | MIC ([6]; H. gypseum IF08231 (Table 1)) [µg/mL] | MIC [7] [µg/mL] | MIC [8] [µg/mL] | MIC [9] [µg/mL] | MIC ([6]; M. gypseum IF08231 (Table 2)) [µg/mL] | MIC value (minimum compound concentration that definitely inhibited any visible growth) ([6]; M. gypseum IF08231 (Table 2)) [µg/mL] | Structure (SMILES) | MIC value (minimum compound concentration that definitely inhibited any visible growth) [1] [µg/mL] | MIC value (minimum compound concentration that definitely inhibited any visible growth) [2] [µg/mL] | MIC value (minimum compound concentration that definitely inhibited any visible growth) [3] [µg/mL] | MIC value (minimum compound concentration that definitely inhibited any visible growth) [4] [µg/mL] | MIC value (minimum compound concentration that definitely inhibited any visible growth) [5] [µg/mL] | MIC value (minimum compound concentration that definitely inhibited any visible growth) ([6]; H. gypseum IF08231 (Table 1)) [µg/mL] | MIC value (minimum compound concentration that definitely inhibited any visible growth) [7] [µg/mL] | MIC value (minimum compound concentration that definitely inhibited any visible growth) [8] [µg/mL] | MIC value (minimum compound concentration that definitely inhibited any visible growth) [9] [µg/mL]
7 | 0.78 | 0.78 | 0.78 | 0.78 | 0.78 | 3.12 | 0.78 | 0.78 | 0.39 |  |  | C=C(CC)c1cccc(CN(C)C/C=C/C#CC(C)(C)C)c1.Cl [Compound 25, trans-N-(6,6-Dimethyl-2-hepten-4-ynyl)-N-methyl-[3-(1-ethylvinyl)benzyl]amine Hydrochloride] |  |  |  |  |  |  |  |  | 
8 | 0.39 | 0.39 | 0.39 | 0.39 | 0.2 |  | 0.2 | 0.78 | 0.2 | 0.2 |  | C=C(C)c1cccc(CN(CC)Cc2ccc(C(C)(C)C)cc2)c1.Cl [Compound 114, N-(4-tert-Butylbenzyl)-N-ethyl-(3-isopropenylbenzyl)amine Hydrochloride] |  |  |  |  |  |  |  |  | 
9 | 6.25 | 6.25 | 6.25 | 12.5 | 3.12 | 12.5 | 3.12 | 6.25 | 6.25 |  |  | C=C(C)c1ccccc1CN(C)C/C=C/C#CC(C)(C)C.Cl [Compound 39, trans-N-(6,6-Dimethyl-2-hepten-4-ynyl)-N-methyl-(2-isopropenylbenzyl)amine Hydrochloride] |  |  |  |  |  |  |  |  | 
10 | 0.39 | 0.39 | 0.39 | 0.39 | 0.39 | 0.39 | 0.39 | 0.39 | 0.2 |  |  | C=C(C)c1cccc(CN(CC)C/C=C/C#CC(C)(C)C)c1.Cl [Compound 45, trans-N-(6,6-Dimethyl-2-hepten-4-ynyl)-N-ethyl-(3-isopropenylbenzyl)amine Hydrochloride] |  |  |  |  |  |  |  |  | 
11 | 0.39 | 0.39 | 0.39 | 0.78 | 0.39 | 0.78 | 0.39 | 0.39 | 0.2 |  |  | C=Cc1cccc(CN(C)C/C=C/C#CC(C)(C)C)c1.Cl [Compound 10, trans-N-(6,6-Dimethyl-2-hepten-4-ynyl)-N-methyl-(3-vinylbenzyl)amine Hydrochloride] |  |  |  |  |  |  |  |  | 
12 |  |  |  |  |  |  |  |  |  |  | 3.12 | C/C=C(/C)c1cccc(CN(C)Cc2ccc(C(C)(C)C)cc2)c1.Cl [Compound 97, cis-N-(4-tert-Butylbenzyl)-N-methyl-[3-(1-methyl-1-propenyl)benzyl]amine Hydrochloride] | 3.12 | 0.78 | 1.56 | 1.56 | 0.78 |  | 1.56 | 1.56 | 0.39
13 | 12.5 | 6.25 | 12.5 | 6.25 | 3.12 | 12.5 | 1.56 | 6.25 | 1.56 |  |  | C=C(C)c1cc(CN(C)C/C=C/C#CC(C)(C)C)ccc1C.Cl [Compound 74, trans-N-(6,6-Dimethyl-2-hepten-4-ynyl)-N-methyl-(3-isopropenyl-4-methylbenzyl)amine Hydrochloride] |  |  |  |  |  |  |  |  | 
14 | 0.2 | 0.2 | 0.1 | 0.1 | 0.1 | 0.39 | 0.1 | 0.1 | 0.1 |  |  | C=C(C)c1cccc(CN(C)C/C=C/C#CC(C)(C)C)c1.Cl [Compound 3, trans-N-(6,6-Dimethyl-2-hepten-4-ynyl)-N-methyl-(3-isopropenylbenzyl)amine Hydrochloride] |  |  |  |  |  |  |  |  | 
15 | 12.5 | 12.5 | 12.5 | 12.5 | 12.5 | 3.12 | 12.5 | 12.5 |  |  |  | C=C(C)c1cccc(CN(C)C/C=C/C#CC(C)(C)C)c1C.Cl [Compound 52, trans-N-(6,6-Dimethyl-2-hepten-4-ynyl)-N-methyl-(3-isopropenyl-2-methylbenzyl)amine Hydrochloride] |  |  |  |  |  |  |  |  | 
